From US11945822B2, “Pyrazolo-triazine and/or pyrazolo-pxrimidine derivatives as selective inhibitor of cyclin dependent kinase” (QURIENT CO., LTD., priority 2018, dated 2024)

Target: T1, CDK1/Cyclin B (Homo sapiens, UniProt P06493)
T1 construct: purchased Invitrogen PR4768C
Assay: Enzymatic assay for CDK1 (FRET based LANCE Ultra kinase assay)
Format: biochemical
Conditions: read-out: CDK1 enzymatic activity (IC50 range)
How it was run: (§1)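 LANCE Ultra TR-FRET: ULight-MBP peptide (68 nM) with ATP at Km, […], 60 min at 23° C. EDTA plus Eu-anti-phospho-MBP added, another 60 min, then 665/615 nm emission read. Compounds tested as 8-dose 4-fold DMSO dilutions.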

T1 sequence (P06493 whole entry): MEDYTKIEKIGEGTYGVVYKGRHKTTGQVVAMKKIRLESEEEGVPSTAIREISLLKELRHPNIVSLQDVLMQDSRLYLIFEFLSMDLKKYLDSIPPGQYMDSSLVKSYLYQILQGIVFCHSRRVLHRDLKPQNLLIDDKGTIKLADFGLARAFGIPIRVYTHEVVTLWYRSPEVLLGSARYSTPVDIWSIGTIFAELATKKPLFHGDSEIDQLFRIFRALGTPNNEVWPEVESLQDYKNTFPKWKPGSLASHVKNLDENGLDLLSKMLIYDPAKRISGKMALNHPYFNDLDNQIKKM
T1 sequence (P14635 whole entry partner): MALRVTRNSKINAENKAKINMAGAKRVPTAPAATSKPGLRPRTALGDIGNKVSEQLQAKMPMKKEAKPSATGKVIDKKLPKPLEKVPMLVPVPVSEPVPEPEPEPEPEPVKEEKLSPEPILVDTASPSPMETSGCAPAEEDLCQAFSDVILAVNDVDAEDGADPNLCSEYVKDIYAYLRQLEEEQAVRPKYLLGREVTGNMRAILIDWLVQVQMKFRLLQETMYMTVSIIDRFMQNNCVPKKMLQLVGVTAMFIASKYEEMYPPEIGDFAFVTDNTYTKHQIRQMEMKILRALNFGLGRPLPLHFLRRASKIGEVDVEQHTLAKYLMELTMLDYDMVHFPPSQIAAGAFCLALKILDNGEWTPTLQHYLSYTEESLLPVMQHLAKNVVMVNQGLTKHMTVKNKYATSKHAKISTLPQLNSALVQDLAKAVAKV

Row | IC50 [nM] | Compound
1 | > 1000 | CC(C)c1cnn2c(NCc3ccccc3-n3cc4cc(C#N)ccc4n3)nc(N3CCC(N)CC3)nc12 [Compound 120]
2 | > 1000 | CC(C)c1cnn2c(NCc3cccc(-c4cc5ccccc5[nH]4)c3)nc(N3CCC(N)CC3)nc12 [Compound 118]
3 | > 1000 | CC(=O)c1ccc2nn(-c3ccccc3CNc3nc(N4CCC(N)CC4)nc4c(C(C)C)cnn34)cc2c1 [Compound 127]

Test system: RPMI-8226
Assay: Cellular RPMI-8226 viability assay (CellTiter-Glo, 72 hours)
Format: cell-based
Conditions: Homo sapiens
Procedure: All cell lines were routinely tested for mycoplasma.
The effect of the CDK7 inhibitor to inhibit the growth of target cancer cells was evaluated through the 72 hours time period of viability assay. Briefly, the candidate cell line ware plated in 96 well plate at the following density of cells respectively. […] DMSO solvent without compound served as a control and final DMSO concentration less than 0.1%. After 72 hours of incubation at 37° C., 5% CO2 incubator, cells were analyzed for the viability using the CellTiter-Glo Luminescent Cell Viability Assay (Promega, Cat #G7570). All viability assays were performed in duplicate and Luminescence was read using an Envision (Perkin Elmer, USA). Data was analyzed using XLfit software.

Row | IC50 [nM] | Compound
4 | < 1000 | CC(C)c1cnn2c(NCc3ccccc3-n3cc4cc(C#N)ccc4n3)nc(N3CCC(N)CC3)nc12 [Compound 120]
5 | < 1000 | CC(C)c1cnn2c(NCc3cccc(-c4cc5ccccc5[nH]4)c3)nc(N3CCC(N)CC3)nc12 [Compound 118]
6 | < 1000 | CC(=O)c1ccc2nn(-c3ccccc3CNc3nc(N4CCC(N)CC4)nc4c(C(C)C)cnn34)cc2c1 [Compound 127]

Target: T2, CDK5/p25 (Homo sapiens, UniProt Q00535)
T2 construct: purchased Invitrogen PR8543B
T2 sequence (Q00535 whole entry): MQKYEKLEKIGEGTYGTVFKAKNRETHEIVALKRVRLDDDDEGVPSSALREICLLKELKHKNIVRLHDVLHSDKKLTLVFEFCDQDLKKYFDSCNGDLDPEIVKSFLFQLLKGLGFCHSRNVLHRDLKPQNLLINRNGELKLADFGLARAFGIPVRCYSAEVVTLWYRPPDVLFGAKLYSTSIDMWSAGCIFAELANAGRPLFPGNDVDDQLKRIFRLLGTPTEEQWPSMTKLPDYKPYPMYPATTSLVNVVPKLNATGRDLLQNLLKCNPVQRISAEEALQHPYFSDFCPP
T2 sequence (Q15078 99-307 partner limits assumed): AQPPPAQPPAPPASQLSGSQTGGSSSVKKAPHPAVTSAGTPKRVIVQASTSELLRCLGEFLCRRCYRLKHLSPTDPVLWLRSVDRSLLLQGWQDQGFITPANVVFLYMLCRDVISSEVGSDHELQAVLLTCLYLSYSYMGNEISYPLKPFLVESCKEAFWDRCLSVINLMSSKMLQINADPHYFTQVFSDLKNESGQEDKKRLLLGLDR
Assay: Enzymatic assay for CDK5 (FRET based LANCE Ultra kinase assay)
Format: biochemical
Conditions: read-out: CDK5 enzymatic activity (IC50 range)
How it was run: as §1

Row | IC50 [nM] | Compound
7 | 100 to 1000 | CC(C)c1cnn2c(NCc3ccccc3-n3cc4cc(C#N)ccc4n3)nc(N3CCC(N)CC3)nc12 [Compound 120]
8 | 100 to 1000 | CC(C)c1cnn2c(NCc3cccc(-c4cc5ccccc5[nH]4)c3)nc(N3CCC(N)CC3)nc12 [Compound 118]
9 | 100 to 1000 | CC(=O)c1ccc2nn(-c3ccccc3CNc3nc(N4CCC(N)CC4)nc4c(C(C)C)cnn34)cc2c1 [Compound 127]

Target: T3, CDK2/Cyclin A (Homo sapiens, UniProt P24941)
T3 construct: purchased Invitrogen PV6290
Assay: Enzymatic assay for CDK2 (FRET based LANCE Ultra kinase assay)
Format: biochemical
Conditions: read-out: CDK2 enzymatic activity (IC50 range)
How it was run: as §1

Row | IC50 [nM] | Compound
10 | 100 to 1000 | CC(C)c1cnn2c(NCc3ccccc3-n3cc4cc(C#N)ccc4n3)nc(N3CCC(N)CC3)nc12 [Compound 120]
11 | 100 to 1000 | CC(C)c1cnn2c(NCc3cccc(-c4cc5ccccc5[nH]4)c3)nc(N3CCC(N)CC3)nc12 [Compound 118]
12 | 100 to 1000 | CC(=O)c1ccc2nn(-c3ccccc3CNc3nc(N4CCC(N)CC4)nc4c(C(C)C)cnn34)cc2c1 [Compound 127]

Target: T4, CDK7/Cyclin H/MNAT1 (Homo sapiens, UniProt P50613)
T4 construct: purchased Invitrogen PR6749B
T4 sequence (P50613 whole entry): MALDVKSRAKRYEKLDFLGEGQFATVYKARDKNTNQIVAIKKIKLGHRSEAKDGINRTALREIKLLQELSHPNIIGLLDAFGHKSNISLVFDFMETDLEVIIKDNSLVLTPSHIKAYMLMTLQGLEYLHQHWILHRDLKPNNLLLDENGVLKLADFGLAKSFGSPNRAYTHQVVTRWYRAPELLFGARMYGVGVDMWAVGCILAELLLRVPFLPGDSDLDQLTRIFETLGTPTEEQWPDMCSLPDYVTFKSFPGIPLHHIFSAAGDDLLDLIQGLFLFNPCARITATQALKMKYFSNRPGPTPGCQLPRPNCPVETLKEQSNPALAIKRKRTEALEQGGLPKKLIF
T4 sequence (P51946 whole entry partner): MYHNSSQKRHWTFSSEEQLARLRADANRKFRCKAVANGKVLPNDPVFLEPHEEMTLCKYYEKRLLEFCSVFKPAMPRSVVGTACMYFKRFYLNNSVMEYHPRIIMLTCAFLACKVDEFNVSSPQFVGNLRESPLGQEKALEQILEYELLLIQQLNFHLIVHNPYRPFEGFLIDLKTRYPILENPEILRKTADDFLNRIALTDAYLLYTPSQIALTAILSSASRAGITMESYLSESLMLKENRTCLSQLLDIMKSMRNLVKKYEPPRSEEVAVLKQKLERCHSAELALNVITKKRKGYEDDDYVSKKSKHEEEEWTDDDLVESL
T4 sequence (P51948 whole entry partner): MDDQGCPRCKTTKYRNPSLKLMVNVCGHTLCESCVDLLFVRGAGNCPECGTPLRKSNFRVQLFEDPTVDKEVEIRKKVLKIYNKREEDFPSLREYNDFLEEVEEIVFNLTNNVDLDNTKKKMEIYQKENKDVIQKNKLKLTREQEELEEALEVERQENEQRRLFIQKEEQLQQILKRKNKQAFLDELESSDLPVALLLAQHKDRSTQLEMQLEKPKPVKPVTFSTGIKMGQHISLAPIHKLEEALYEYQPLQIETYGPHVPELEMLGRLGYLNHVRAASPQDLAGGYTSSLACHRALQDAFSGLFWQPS
Assay: Enzymatic assay for CDK7 (FRET based LANCE Ultra kinase assay)
Format: biochemical
Conditions: CDK7 over CDK1
How it was run: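 Inhibition was measured at Km ATP by time-resolved FRET between a Eu anti-phospho antibody and a phosphorylated ULight peptide. The enzyme was the purified CDK7/cyclin complex, and data were curve-fitted.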

Row | CDK1/CDK7: Selectivity of CDK7 inhibition over CDK1 inhibition | Compound
13 | A (A=greater than 200 fold) | CC(C)c1cnn2c(NCc3ccccc3-n3cc4cc(C#N)ccc4n3)nc(N3CCC(N)CC3)nc12 [Compound 120]
14 | A (A=greater than 200 fold) | CC(=O)c1ccc2nn(-c3ccccc3CNc3nc(N4CCC(N)CC4)nc4c(C(C)C)cnn34)cc2c1 [Compound 127]

Row | Compound | CDK1/CDK7: Selectivity of CDK7 inhibition over CDK1 inhibition
15 | CC(C)c1cnn2c(NCc3cccc(-c4cc5ccccc5[nH]4)c3)nc(N3CCC(N)CC3)nc12 [Compound 118] | B (B=less than 200 fold, but greater than 20 fold)

Same assay, conditions: CDK7 over CDK2

Row | Compound | CDK2/CDK7: Selectivity of CDK7 inhibition over CDK2 inhibition
16 | CC(C)c1cnn2c(NCc3ccccc3-n3cc4cc(C#N)ccc4n3)nc(N3CCC(N)CC3)nc12 [Compound 120] | A (A=greater than 200 fold)
17 | CC(C)c1cnn2c(NCc3cccc(-c4cc5ccccc5[nH]4)c3)nc(N3CCC(N)CC3)nc12 [Compound 118] | B (B=less than 200 fold, but greater than 20 fold)
18 | CC(=O)c1ccc2nn(-c3ccccc3CNc3nc(N4CCC(N)CC4)nc4c(C(C)C)cnn34)cc2c1 [Compound 127] | B (B=less than 200 fold, but greater than 20 fold)

Same assay, conditions: CDK7 over CDK5

Row | Compound | CDK5/CDK7: Selectivity of CDK7 inhibition over CDK5 inhibition
19 | CC(C)c1cnn2c(NCc3ccccc3-n3cc4cc(C#N)ccc4n3)nc(N3CCC(N)CC3)nc12 [Compound 120] | B (B=less than 200 fold, but greater than 20 fold)
20 | CC(C)c1cnn2c(NCc3cccc(-c4cc5ccccc5[nH]4)c3)nc(N3CCC(N)CC3)nc12 [Compound 118] | B (B=less than 200 fold, but greater than 20 fold)
21 | CC(=O)c1ccc2nn(-c3ccccc3CNc3nc(N4CCC(N)CC4)nc4c(C(C)C)cnn34)cc2c1 [Compound 127] | B (B=less than 200 fold, but greater than 20 fold)

Same assay, conditions: read-out: CDK7 enzymatic activity (IC50 range)

Row | IC50 [nM] | Compound
22 | < 100 | CC(C)c1cnn2c(NCc3ccccc3-n3cc4cc(C#N)ccc4n3)nc(N3CCC(N)CC3)nc12 [Compound 120]
23 | < 100 | CC(C)c1cnn2c(NCc3cccc(-c4cc5ccccc5[nH]4)c3)nc(N3CCC(N)CC3)nc12 [Compound 118]
24 | < 100 | CC(=O)c1ccc2nn(-c3ccccc3CNc3nc(N4CCC(N)CC4)nc4c(C(C)C)cnn34)cc2c1 [Compound 127]

Test system: MV4-11
Assay: Cellular MV4-11 viability assay (CellTiter-Glo, 72 hours)
Format: cell-based
Conditions: Homo sapiens
How it was run: (§2)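 CellTiter-Glo luminescence read in duplicate after 72 h compound exposure (37 °C, 5% CO2); DMSO-only control, final DMSO under 0.1%.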

Row | IC50 [nM] | Compound
25 | < 1000 | CC(C)c1cnn2c(NCc3ccccc3-n3cc4cc(C#N)ccc4n3)nc(N3CCC(N)CC3)nc12 [Compound 120]

Test system: H460
Assay: Cellular H460 viability assay (CellTiter-Glo, 72 hours)
Format: cell-based
Conditions: Homo sapiens, NCI-H460
How it was run: as §2

Row | IC50 [nM] | Compound
26 | < 1000 | CC(C)c1cnn2c(NCc3ccccc3-n3cc4cc(C#N)ccc4n3)nc(N3CCC(N)CC3)nc12 [Compound 120]
27 | < 1000 | CC(C)c1cnn2c(NCc3cccc(-c4cc5ccccc5[nH]4)c3)nc(N3CCC(N)CC3)nc12 [Compound 118]
28 | < 1000 | CC(=O)c1ccc2nn(-c3ccccc3CNc3nc(N4CCC(N)CC4)nc4c(C(C)C)cnn34)cc2c1 [Compound 127]
